This note sets out measurements from paper PMC10223552 (Pharmaceuticals, 2023).

Like-named read-outs stand apart in the source and are kept apart here. Where only a bound is given, the exact number is not on record here.

What is called Ki is the dissociation constant of the complex between target and ligand, obtained from inhibition or displacement. For orientation: IC50 means the concentration at which inhibition is half-maximal. Usually Kd stands for a measure of binding affinity in units of concentration. High values mean a looser complex, low ones a tighter complex.

One experiment concerns the target T1, gpH3R (Cavia porcellus, UniProt Q9JI35).
T1 construct: from tissue; host or cells: isolated distal ileum of male guinea pigs
The experiment can be described thus: Ex vivo assay for histamine H3R antagonists on electrically stimulated guinea pig ileum. The method, then: All newly synthesized compounds were evaluated as H3R antagonists/inverse agonists on the guinea pig ileum (gpH3R), stimulated electrically to induce contractions. The distinct affinity profile and species-dependent pharmacology of H3R ligands are known. […] Therefore, to compare species differences, all newly synthesized compounds were subjected to radioligand displacement assay in membrane fractions of HEK-293 cells stably expressing hH3R.
(§1) Ex vivo assay for histamine H3R and H1R antagonists were measured on the isolated guinea pig ileum stimulated to contractions by histamine. The pA2-values were calculated according to Arunlakshana and Schild. The radioligand-displacement binding assay was performed in membrane fractions of HEK-293 cells stably expressing hH3R. Cell cultivation and membrane preparation was performed according to Kottke et al.. The Ki values were calculated from the IC50 values using the Cheng–Prusoff equation [37]. The statistical calculations were performed on –log(Ki). […] The inhibitory activities of novel ADS compounds were assessed in spectrophotometric Ellman’s assay using AChE from electric eel (eeAChE) and BuChE from horse serum (eqBuChE).
3. Pharmacological assay results.
3.1. Ex vivo assay for histamine H3R receptor antagonists on guinea pig ileum.
Male guinea pigs, weighing 300-400 g were euthanized by a blow to the neck. Following this, a 20-30 cm length of the distal ileum, apart from the terminal 5 cm was rapidly removed and placed in phosphate buffer at room […]
indomethacin (Sigma-Aldrich, St. Louis, MO, USA) (1·10-6 mol/L). The intraluminal content was rinsed and the isolated intestine was cut into 1.5-2 cm segments. The preparations were mounted between two platinum electrodes […]
load of 1.0 g (Hugo Sachs Hebel-Messvorsatz (Tl-2)/HF-modem; Hugo Sachs Elektronik, Hugstetten, Germany) connected to a pen recorder (Kipp & Zonen BD41, Delft, Holland). During an equilibration period of 60 min, the Krebs buffer was changed every 10 min. The preparations were then continuously stimulated at 15-20 V at a frequency of 0.1 Hz for a duration of 0.5 ms, with rectangular-wave electrical pulses (Grass Stimulator S-88; Grass Instruments Co., Quincy, Massachusetts, USA). […] Five minutes […]
before (R)-(−)-α-methylhistamine (RAMH) (Toronto Research Chemicals Inc., North York, Canada), […]
added. The first cumulative concentration-response curve was determined to RAMH (10 nM – 10 mM) at an […]
The second to fourth curve was measured against increasing antagonist concentration (incubation time 20 min). The pA2-values were calculated according to Arunlakshana and Schild. [Br J Pharmacol Chemother. […] Statistical analysis was carried out with the Students’ t-test. In all tests, a p<0.05 was considered statistically significant. The pA2 values were compared with the affinity of thioperamide (Sigma-Aldrich, St. Louis, MO, USA).

For another experiment, the target named is T2, hH3R (Homo sapiens, UniProt Q9Y5N1).
T2 construct: expressed in transfected cells
T2 sequence (Q9Y5N1 whole entry): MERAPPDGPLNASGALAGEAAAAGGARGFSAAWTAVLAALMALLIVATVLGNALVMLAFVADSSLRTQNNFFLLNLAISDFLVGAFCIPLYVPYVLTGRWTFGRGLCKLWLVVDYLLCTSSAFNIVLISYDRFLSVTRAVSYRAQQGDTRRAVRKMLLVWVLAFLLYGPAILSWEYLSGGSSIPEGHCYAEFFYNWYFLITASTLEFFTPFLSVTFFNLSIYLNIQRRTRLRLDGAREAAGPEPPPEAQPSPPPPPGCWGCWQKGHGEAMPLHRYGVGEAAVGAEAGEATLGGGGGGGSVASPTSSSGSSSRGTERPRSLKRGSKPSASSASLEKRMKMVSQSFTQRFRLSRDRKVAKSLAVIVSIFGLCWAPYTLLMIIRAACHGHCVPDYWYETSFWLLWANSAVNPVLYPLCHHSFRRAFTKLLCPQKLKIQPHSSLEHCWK
The experiment can be described thus: biochemical. The experiment is classed as binding. The method, then:
as §1, with “All newly synthesized compounds were evaluated as H3R antagonists/inverse agonists on the guinea pig ileum (gpH3R), stimulated electrically to induce contractions. The distinct affinity profile and species-dependent pharmacology of H3R ligands are known. […] Therefore, to compare species differences, all newly synthesized compounds were subjected to radioligand displacement assay in membrane fractions of HEK-293 cells stably expressing hH3R. […] Ex” for “Ex”
3.3 hH3R radioligand displacement binding assay.
The radioligand displacement binding assay was performed in membrane fractions of HEK-293 cells stably expressing hH3R. Cell cultivation and membrane preparation was performed according to Kottke et al. [T. Kottke, […]
radioligand displacement assay, radioactively labeled [3H]Nα-methylhistamine was used at a final concentration […]
The total assay volume was set to 200 µL. The compounds were tested in several appropriate concentrations between 100 µM and 0.1 nM. Pipetting was partly done by Freedom Evo® (Tecan).
The membrane fraction (20 […]
µg/well), test compounds and radiolabeled ligand were incubated for 90 minutes at 25 °C while shaking. The bound radioligand was separated from the free radioligand by filtration through GF/B filters pre-treated with 0.3 % (m/v) polyethyleneimine using a cell harvester. Radioactivity was determined by liquid scintillation counting using a MicroBeta® Trilux (Perkin Elmer). The data was obtained in duplicates in at least three independent experiments. Non-specific binding was subtracted from the raw data to calculate specific-binding values. The evaluation was performed with GraphPad Prism 6.1 (San Diego, CA, USA) using non-linear regression (one-site competition with a logarithmic scale). The Ki values were calculated from the IC50 values using the Cheng-Prusoff […]
equation. [C. […] The statistical calculations […]
were performed on –log(Ki).

In a further experiment the target is T3, gpH1R (Cavia porcellus, UniProt P31389).
T3 construct: from tissue; host or cells: isolated distal ileum of male guinea pigs
T3 sequence (P31389 whole entry): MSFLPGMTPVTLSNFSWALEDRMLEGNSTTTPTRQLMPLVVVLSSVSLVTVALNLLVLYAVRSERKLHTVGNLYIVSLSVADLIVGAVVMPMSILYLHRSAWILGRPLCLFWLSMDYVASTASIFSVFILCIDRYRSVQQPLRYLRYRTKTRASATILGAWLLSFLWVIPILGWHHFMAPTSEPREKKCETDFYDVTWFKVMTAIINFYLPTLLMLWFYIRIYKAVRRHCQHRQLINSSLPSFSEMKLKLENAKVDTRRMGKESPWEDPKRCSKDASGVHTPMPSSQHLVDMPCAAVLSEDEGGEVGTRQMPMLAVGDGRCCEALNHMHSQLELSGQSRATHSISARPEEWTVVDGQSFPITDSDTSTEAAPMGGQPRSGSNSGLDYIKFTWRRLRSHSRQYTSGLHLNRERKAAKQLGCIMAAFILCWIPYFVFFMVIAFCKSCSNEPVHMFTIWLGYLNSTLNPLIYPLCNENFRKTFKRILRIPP
Nature of the experiment: Ex vivo assay for histamine H1R antagonists on guinea pig ileum stimulated by histamine (+atropine). The conditions noted are these: gpH1R +Atropine pA2 ± sem, isolated guinea pig ileum, vs histamine, 0.05 µM atropine. The protocol: A second histamine receptor located in the guinea pig ileum is H1R. The antagonistic effect at H1R was measured on the isolated guinea pig ileum stimulated to contractions by histamine. To eliminate the impact of muscarinic receptors located on the tested tissue, 0.05 µM of atropine was added to the Krebs buffer.
as §1
3.2 Ex vivo assay for histamine H1R receptor antagonists on guinea pig ileum.
Male guinea pigs, weighing 300-400 g were euthanized by a blow to the neck. A 20-30 cm length of the distal ileum, apart from the terminal 5 cm was rapidly removed and placed in phosphate buffer at room temperature (pH […]
Aldrich, St. Louis, MO, USA) (1·10-6 mol/L). The intraluminal content was rinsed and the isolated intestine was cut into 1.5-2 cm segments. The preparations were mounted isotonically in a 20 mL organ bath filled with Krebs […]
a constant load of 0.5 g (Hugo Sachs Hebel-Messvorsatz (Tl-2)/HF-modem; Hugo Sachs Elektronik, Hugstetten, Germany) connected to a pen recorder (Kipp & Zonen BD41, Delft, Holland). During an equilibration period of 40 min, the Krebs buffer was changed every 10 min. The first cumulative concentration-response curve was determined to histamine (Sigma-Aldrich, St. Louis, MO, USA) (10 nM - 10 mM) at increasing concentration spaced by three or 3.3-fold. The second to the fourth (or fifth) curve was measured in the presence of an increasing concentration of antagonist (incubation time 10 min). The pA2-values were calculated according to Arunlakshana and Schild. [Br J Pharmacol Chemother. […] Statistical analysis was carried out with the Students’ t-test. In all tests, a p<0.05 was considered statistically significant. The pA2 values were compared with the affinity

Another experiment has as its target T4, eeAChE (Electrophorus electricus, UniProt O42275).
T4 construct: purchased Sigma–Aldrich (Steinheim, Germany)
The experiment can be described thus: biochemical. The conditions noted are these: for inhibition at 10 µM: read-out: eeAChE % inh. (10 µM) ± SD. The arrangement: species or system electric eel.

Another experiment addresses eqBuChE (Equus caballus, UniProt P81908). Nature of the experiment: biochemical. The conditions noted are these: for inhibition at 10 µM: read-out: eqBuChE % inh. (10 µM) ± SD; for IC50: read-out: eqBuChE IC50 ± sem.
Where [1] appears, read: isolated guinea pig ileum, vs RAMH, read-out: gpH3R pA2 ± sem (converted).
Where [2] appears, read: mean ± sem, at least three independent experiments, read-out: hH3R -log(Ki) ± sem (converted).
The mark [3] stands for this setting: hH3R -log(Ki) ± sem, mean ± sem, at least three independent experiments.

T1 sequence (Q9JI35 whole entry): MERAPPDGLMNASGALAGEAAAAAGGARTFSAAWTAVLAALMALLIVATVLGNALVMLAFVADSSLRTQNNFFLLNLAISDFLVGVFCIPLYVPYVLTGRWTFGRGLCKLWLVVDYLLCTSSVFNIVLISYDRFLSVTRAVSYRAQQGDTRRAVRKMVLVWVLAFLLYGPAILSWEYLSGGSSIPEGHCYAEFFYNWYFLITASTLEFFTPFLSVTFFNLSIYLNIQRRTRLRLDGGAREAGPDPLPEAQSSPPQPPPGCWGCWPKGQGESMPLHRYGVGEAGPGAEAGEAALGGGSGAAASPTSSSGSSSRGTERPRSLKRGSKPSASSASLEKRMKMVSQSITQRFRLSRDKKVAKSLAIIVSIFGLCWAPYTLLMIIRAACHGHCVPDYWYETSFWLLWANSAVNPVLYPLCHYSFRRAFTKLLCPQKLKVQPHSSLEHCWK
eqBuChE, sequence (P81908 whole entry): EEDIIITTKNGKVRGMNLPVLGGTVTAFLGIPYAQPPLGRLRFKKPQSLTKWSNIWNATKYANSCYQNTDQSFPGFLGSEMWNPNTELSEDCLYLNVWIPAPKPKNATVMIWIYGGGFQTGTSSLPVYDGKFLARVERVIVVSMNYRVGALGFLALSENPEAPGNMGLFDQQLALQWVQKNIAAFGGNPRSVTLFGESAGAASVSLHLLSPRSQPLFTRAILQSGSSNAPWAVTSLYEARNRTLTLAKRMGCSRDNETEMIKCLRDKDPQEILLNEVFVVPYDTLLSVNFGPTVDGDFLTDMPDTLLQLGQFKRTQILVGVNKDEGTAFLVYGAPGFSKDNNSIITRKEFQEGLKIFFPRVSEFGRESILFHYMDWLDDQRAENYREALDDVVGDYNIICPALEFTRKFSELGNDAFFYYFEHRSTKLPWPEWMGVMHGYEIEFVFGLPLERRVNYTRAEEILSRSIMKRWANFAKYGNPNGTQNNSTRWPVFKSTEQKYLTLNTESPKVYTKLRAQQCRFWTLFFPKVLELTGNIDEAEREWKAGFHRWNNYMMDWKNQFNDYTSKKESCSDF
T4 sequence (O42275 24-633): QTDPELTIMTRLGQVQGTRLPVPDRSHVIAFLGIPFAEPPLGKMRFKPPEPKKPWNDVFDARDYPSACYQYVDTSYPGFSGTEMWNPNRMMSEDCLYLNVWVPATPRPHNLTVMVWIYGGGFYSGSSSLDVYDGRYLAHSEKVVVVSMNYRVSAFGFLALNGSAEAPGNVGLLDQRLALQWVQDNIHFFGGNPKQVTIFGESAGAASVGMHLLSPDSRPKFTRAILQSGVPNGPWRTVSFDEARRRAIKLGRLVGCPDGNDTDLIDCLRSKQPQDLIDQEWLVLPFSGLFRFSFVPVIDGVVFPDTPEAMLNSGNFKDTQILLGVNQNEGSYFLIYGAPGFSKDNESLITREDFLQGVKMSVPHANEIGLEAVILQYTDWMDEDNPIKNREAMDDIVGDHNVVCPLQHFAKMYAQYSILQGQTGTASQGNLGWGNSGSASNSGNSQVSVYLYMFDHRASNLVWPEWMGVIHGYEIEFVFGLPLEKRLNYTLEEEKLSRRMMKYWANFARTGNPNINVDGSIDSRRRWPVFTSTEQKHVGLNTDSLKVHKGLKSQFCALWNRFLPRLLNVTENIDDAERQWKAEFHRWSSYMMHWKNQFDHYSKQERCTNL

As to `S=C(NC1CCCCC1)N1CCC(c2cnc[nH]2)CC1` [Thioperamide, reference compound], at gpH3R (setting [1]), the Kb was 1.55 nM.

Turning to `N=C(N)N(CCCCN1CCN(CCCCCCCOc2ccccc2)CC1)Cc1ccc(C(F)(F)F)cc1` [ADS1020], the Ki at hH3R (setting [2]) was 437 nM. For the same molecule, the “gpH3R pA2 ± sem” value at gpH3R (isolated guinea pig ileum, vs RAMH, 20 min) was 8.49 ± 0.05. On gpH1R, this molecule had a Kb of 871 nM.

With `N=C(N)N(CCCCN1CCN(CCCOCCCc2ccc(Cl)cc2)CC1)Cc1ccccc1` [ADS10278], the Ki on hH3R (setting [2]) is 324 nM. For the same molecule, the inhibition at 10 µM was determined as 44 ± 0.9% on eeAChE and 76.6 ± 1.3% on eqBuChE. In addition, the Kb at gpH3R is 14.8 nM; at gpH1R, 117 nM. In addition, the IC50 on eqBuChE worked out at 2000 ± 100 nM.

Consider `N=C(N)N(CCCCN1CCCCC1)CCCc1ccc(Cl)cc1` [ADS10300], for which, at hH3R (setting [3]), affinity was put at a Ki of 603 nM. Also, the inhibition at 10 µM on eeAChE stood at 40.7 ± 1.8%; on eqBuChE, 75.2 ± 0.4%. The results for the Kb on gpH3R and on gpH1R were 47.9 nM and 2510 nM, respectively. The IC50 at eqBuChE was determined as 2400 ± 100 nM.

Molecule `N=C(N)N(CCCCN1CCN(CCCCCCCOc2ccc(Cl)cc2)CC1)Cc1ccc(C(F)(F)F)cc1` [ADS10376] gave a Ki on hH3R (setting [3]) of 398 nM. For the same molecule, the inhibition at 10 µM was found to be 27.8 ± 5.1% on eeAChE and 71.4 ± 0.6% on eqBuChE. The Kb on gpH3R is 7.08 nM; at gpH1R it was 214 nM. The IC50 at eqBuChE is 4900 ± 200 nM.

For `N=C(NCCCCc1ccc(Cl)cc1)NCCCN1CCCCC1` [ADS10306], the Ki is 195 nM on hH3R (setting [3]) and less than 200 nM at hH3R (hH3R Ki). Besides, the inhibition at 10 µM stood at 17.8 ± 0.7% at eeAChE and 89.4 ± 0.1% at eqBuChE. The figures for the Kb on gpH3R and at gpH1R were 47.9 nM and 67.6 nM, respectively. Also, the IC50 at eqBuChE is 1600 nM.

For `CNCCc1cnc[nH]1` [[3H]Nα-methylhistamine, reference compound], on hH3R (radioligand used at 2 nM), the Kd was 3.08 nM.

For the molecule `N=C(N)N(CCCc1ccc(Cl)cc1)CCCN1CCCCC1` [ADS10292], on hH3R (setting [3]), the Ki is 2690 nM. Also, the inhibition at 10 µM on eeAChE is 50.6 ± 0.8%; on eqBuChE it was 54.3 ± 4.7%. Besides, the values for the IC50 on eeAChE (eeAChE IC50 ± sem) and at eqBuChE were 10900 nM and 8400 ± 200 nM, respectively. For the same molecule, the Kb at gpH3R was 45.7 nM; at gpH1R, 1200 nM.

On to `N=C(N)N(CCCCN1CCN(CCCOCCCc2ccccc2)CC1)Cc1ccc(C(F)(F)F)cc1` [ADS10350], for which, on hH3R (setting [3]), the affinity, expressed as Ki, was 2690 nM. Also, the inhibition at 10 µM at eeAChE amounted to 1 ± 0.2%; on eqBuChE, 28.3 ± 3.2%. Moreover, the values for the Kb at gpH3R (setting [1]) and on gpH1R were 28.8 nM and 269 nM, respectively.

`N=C(NCCCCN1CCCCC1)NCCCc1ccc(Cl)cc1` [ADS10301]: the Ki is 191 nM at hH3R (setting [3]) and less than 200 nM on hH3R (hH3R Ki). Also, the inhibition at 10 µM on eeAChE was determined as 11.3 ± 0.4%; at eqBuChE, 60.4 ± 0.7%. The figures for the Kb on gpH3R and on gpH1R were 22.9 nM and 347 nM, respectively. The IC50 on eqBuChE was 5900 ± 100 nM.

Turning to `N=C(N)N(CCCCN1CCN(CCCOCCCc2ccccc2)CC1)Cc1ccccc1` [ADS10349], on hH3R (setting [2]), the Ki is 2510 nM. The inhibition at 10 µM on eeAChE was determined as 6.4 ± 1.3%; on eqBuChE, 32.4 ± 4.2%. Moreover, the Kb on gpH3R is 45.7 nM; on gpH1R, 347 nM.

In turn, `N=C(N)N(CCCCN1CCN(CCCOCCCc2ccc(Cl)cc2)CC1)Cc1ccc(C(F)(F)F)cc1` [ADS10279] had an inhibitory constant (Ki) on hH3R (setting [3]) of 1070 nM. Also, the inhibition at 10 µM at eeAChE stood at 47.4 ± 1.2%; at eqBuChE, 67.5 ± 0.5%. The Kb at gpH3R is 5.25 nM; on gpH1R, 135 nM. At eqBuChE, the concentration for half-maximal inhibition (IC50) is 4800 ± 100 nM.

The molecule `N=C(NCCCc1ccc(Cl)cc1)NCCCN1CCCCC1` [ADS10298] had a Ki at hH3R (setting [3]) of 537 nM. For the same molecule, the inhibition at 10 µM at eeAChE turned out to be 39.8 ± 2.6%; on eqBuChE, 20.3 ± 0.8%. Moreover, the values for the Kb at gpH3R (setting [1]) and on gpH1R were 41.7 nM and 132 nM, respectively.

As for `N=C(N)N(CCCCc1ccc(Cl)cc1)CCCN1CCCCC1` [ADS10312], affinity on hH3R (setting [3]) was put at a Ki of 525 nM. The inhibition at 10 µM on eeAChE came out at 22.2 ± 3.9%; at eqBuChE, 72.6 ± 5.2%. For the same molecule, the values for the Kb at gpH3R and on gpH1R were 93.3 nM and 1380 nM, respectively. For the same molecule, the IC50 at eqBuChE was 3500 ± 100 nM.

As to `N=C(N)N(CCCCN1CCN(CCCCCCCOc2ccc(Cl)cc2)CC1)Cc1ccccc1` [ADS10377], the Ki at hH3R (setting [3]) was 282 nM. In addition, the results for the inhibition at 10 µM on eeAChE and at eqBuChE were 34.3 ± 2.6% and 84.6 ± 1.5%, respectively. The Kb is 15.1 nM on gpH3R and 123 nM on gpH1R. Further, on eqBuChE, the IC50 was 1900 ± 100 nM.
